Measured values: patent US9187411B2, “Leukotriene B4 antagonist compound” (Eli Lilly and Company, priority 2012, dated 2015)
Where two headings read alike, the source gives them in different places.

Target: T1, hBLT2 (Homo sapiens, UniProt Q9NPC1)
T1 construct: expressed in transfected cells; membrane preparation
T1 sequence (Q9NPC1 1-358): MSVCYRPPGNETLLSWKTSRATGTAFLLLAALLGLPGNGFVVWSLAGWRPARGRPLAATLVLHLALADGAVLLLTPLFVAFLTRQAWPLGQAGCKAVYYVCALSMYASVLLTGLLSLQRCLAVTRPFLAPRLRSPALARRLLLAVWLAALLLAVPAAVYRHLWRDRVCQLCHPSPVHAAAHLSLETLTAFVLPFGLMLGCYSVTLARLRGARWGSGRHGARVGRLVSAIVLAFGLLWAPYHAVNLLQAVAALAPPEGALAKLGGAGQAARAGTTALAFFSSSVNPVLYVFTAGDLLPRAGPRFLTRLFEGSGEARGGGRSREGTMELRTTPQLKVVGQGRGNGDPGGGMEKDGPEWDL
Assay: [3H]-LTB4 binding assay in hBLT2 containing membranes
Settings: [3H]-LTB4 displacement, hBLT2/CHO-K1 membranes
Experimental: [^3H]-LTB4 and known BLT1 and BLT2 antagonists are used to generate LTB4 displacement curves and IC50 values for compounds of the present invention. Receptor inhibition by compounds of the present invention is determined relative to BLT1 inhibitor and BLT2 inhibitor reference molecules to obtain percent efficacies.
hBLT2 Test Compound Preparations: For hBLT2 assays, test compounds are prepared in DMSO to make up a 10 mM stock solution. The stock solution is initially diluted 1:10 in Buffer A (50 mM HEPES pH 7.4, 10 mM MgCl2, 10 mM NaCl, 10% glycerol (v/v), 1% BSA (w/v)), followed by 3× serial dilutions in Buffer B (50 mM HEPES pH 7.4, 10 mM MgCl2, 10 mM NaCl, 10% glycerol (v/v), 1% BSA (w/v), 10% DMSO (v/v)) creating a ten-point dilution curve. Final compound concentrations ranging from 300 μM to 15.2 nM are plated in a 96-well round-bottom plate for conducting the in vitro assays. […]
[^3H]-LTB4 (30 μL of 2.8 nM, PerkinElmer NET-852) is aliquoted into each well of a Falcon® 3072 microtiter plate (BD Biosciences). […] The plate is allowed to sit for 16 h and then read on a Packard Instrument Company Topcount® for 1 min. […]

With `CCCc1c(NC(=O)CC(C)(C)C(=O)[O-])cccc1OCCCOc1cc(O)c(-c2ccc(F)cc2)cc1CC.[Na+]` [Example 2, Sodium 4-[[3-[3-[2-ethyl-4-(4-fluorophenyl)-5-hydroxy-phenoxy]propoxy]-2-propyl-phenyl]amino]-2,2-dimethyl-4-oxo-butanoate] the IC50 (read-out: absolute IC50) was 16.5 µM and the IC50 (read-out: relative IC50) was 15.4 µM.
